# Target: T1, RIPK2 (full length FLAG His tagged RIPK2; RIP2 kinase) (Homo sapiens, UniProt O43353)
# T1 construct: Full length FLAG His tagged RIPK2 was purified from a Baculovirus expression system; FLAG (N); 6His (N); made in house; host or cells: Spodoptera frugiperda (Sf9) insect cells, baculovirus
# Assay: Fluorescent polarization based binding assay, competition with a fluorescently labeled ATP competitive ligand at the ATP binding pocket of RIPK2
# Settings: pIC50s averaged, minimum of 2 experiments; fluorescent ligand 5 nM; read-out: mean pIC50 (converted)
# Source text: A fluorescent polarization based binding assay was developed to quantitate interaction of novel test compounds at the ATP binding pocket of RIPK2, by competition with a fluorescently labeled ATP competitive ligand. Full length FLAG His tagged RIPK2 was purified from a Baculovirus expression system and was used at a final assay concentration of twice the KDapparent. A fluorescent labeled ligand (5-({[2-({[3-({4-[(5-hydroxy-2-methylphenyl)amino]-2-pyrimidinyl}amino)phenyl]carbonyl}amino)ethyl]amino}carbonyl)-2-(6-hydroxy-3-oxo-3H-xanthen-9-yl)benzoic acid, prepared as described below) was used at a final assay concentration of 5 nM. Both the enzyme and ligand were prepared in solutions in 50 mM HEPES pH7.5, 150 mM NaCl, 10 mM MgCl2, 1 mM DTT, and 1 mM CHAPS. Test compounds were prepared in 100% DMSO and […] was dispensed to individual wells of a multiwell plate. Next, 5 ul RIPK2 was added to the test compounds at twice the final assay concentration, and incubated at room temperature for 10 minutes. […] Finally, samples were read on an instrument capable of measuring fluorescent polarization. Test compound inhibition was expressed as percent (%) inhibition of internal assay controls.
# For concentration response experiments, normalized data were fit and pIC50s determined using conventional techniques. […]
# T1 sequence (O43353 whole entry): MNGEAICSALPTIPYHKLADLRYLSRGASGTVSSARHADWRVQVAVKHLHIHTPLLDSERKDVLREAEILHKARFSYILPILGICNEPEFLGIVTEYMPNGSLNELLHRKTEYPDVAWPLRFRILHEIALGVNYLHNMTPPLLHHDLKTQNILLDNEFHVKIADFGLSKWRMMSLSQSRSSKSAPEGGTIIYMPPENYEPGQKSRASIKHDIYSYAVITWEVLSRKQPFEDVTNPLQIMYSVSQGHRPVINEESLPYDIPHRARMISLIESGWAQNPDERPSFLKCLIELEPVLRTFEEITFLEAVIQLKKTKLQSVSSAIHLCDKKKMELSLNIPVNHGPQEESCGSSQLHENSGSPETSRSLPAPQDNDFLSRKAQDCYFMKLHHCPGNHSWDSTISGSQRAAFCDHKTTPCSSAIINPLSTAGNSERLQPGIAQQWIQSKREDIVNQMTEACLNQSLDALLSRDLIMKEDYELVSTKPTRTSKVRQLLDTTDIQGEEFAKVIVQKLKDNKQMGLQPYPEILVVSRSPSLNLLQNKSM
row,IC50,Compound
1,10 µM,"COCCNC(=O)c1ccc2c(c1)nc(-c1cnc(-c3ccccc3)[nH]1)n2CCOC [Example 39, N,1-bis[2-(methyloxy)ethyl]-2-(2-phenyl-1H-imidazol-4-yl)-1H-benzimidazole-5-carboxamide]"
2,10 µM,"CNC(=O)c1ccc2c(c1)nc(-c1c[nH]c(-c3ccc(Cl)cc3)n1)n2Cc1ccccn1 [Example 2, 2-[2-(4-chlorophenyl)-1H-imidazol-4-yl]-N-methyl-1-(2-pyridinylmethyl)-1H-benzimidazole-5-carboxamide]"

# Reference: patent US20130018039A1, “IMIDAZOLYL-IMIDAZOLES AS KINASE INHIBITORS” (priority 2010, published 2013)
